Source: ChEMBL document CHEMBL5653596, “A novel small molecule met inhibitor induces apoptosis in cells transformed by the oncogenic TPR-MET tyrosine kinase” (Cancer Res, 2003)
Activity calls are given as the source filed them. No cut-off for these calls is given here.

Columns and labels:
BaF3 [1] = assay: Inhibition of Serine phosphorylation of FKHR at Ser256 in mouse BaF3 cells transfected with TPR-MET genes at 0.2 to 5 uM by immunoblotting analysis; format: cell-based; conditions: dose 0.2-5 µM
[2] = target: Cyclin-dependent kinase 2 (Homo sapiens, UniProt P24941); assay: Inhibition of glutathione S-transferase fused CDK2 (unknown origin) catalytic activity infected in Sf9 cells using poly-Glu-Tyr (4:1) as substrate
[3] = target: Platelet-derived growth factor receptor beta (Homo sapiens, UniProt P09619); assay: Inhibition of glutathione S-transferase fused PDGFbetaR (unknown origin) catalytic activity infected in Sf9 cells using poly-Glu-Tyr (4:1) as substrate
BaF3 [4] = assay: Inhibition of migration of mouse BaF3 cells at 5 uM measured after 4 hrs by spontaneous transwell migration assay relative to control; format: functional
BaF3 [5] = assay: Inhibition of cell growth in mouse BaF3 cells transfected with TPR-MET genes at 1 uM measured after 3 days by 3-(4,5-dimethylthiazol-2-yl)-2,5-diphenyltetrazolium bromide assay; format: functional; conditions: BaF3, 72 h, time 3 day
BaF3 [6] = assay: Reduction in tyrosine phosphorylation of cellular proteins in mouse BaF3 cells transfected with TPR-MET genes by immunoblotting analysis; format: functional, cell-based; conditions: dose 0.2-5 µM
BaF3 [7] = assay: Inhibition of […] phosphorylation of AKT at […] in mouse BaF3 cells transfected with TPR-MET genes at 0.2 to 5 uM by immunoblotting analysis; format: cell-based; conditions: dose 0.2-5 µM
BaF3 [8] = assay: Inhibition of Serine phosphorylation of GSK3beta at Ser21/9 in mouse BaF3 cells transfected with TPR-MET genes at 0.2 to 5 uM by immunoblotting analysis; format: cell-based; conditions: dose 0.2-5 µM
BaF3 [9] = assay: Inhibition of migration of mouse BaF3 cells at 1 uM measured after 4 hrs by spontaneous transwell migration assay relative to control; format: functional
[10] = target: Hepatocyte growth factor receptor (Mus musculus) (UniProt P16056); assay: Inhibition of Met autophosphorylation at Tyr361/365/366 in mouse BaF3 cells at 5 uM by immunoblotting analysis; format: cell-based
BaF3 [11] = assay: Inhibition of cell growth in mouse BaF3 cells in presence of interleukin 3 at 1 uM measured after 3 days by 3-(4,5-dimethylthiazol-2-yl)-2,5-diphenyltetrazolium bromide assay; format: functional, cell-based; conditions: time 3.0 day
BaF3 [12] = assay: Induction of cell cycle arrest in mouse BaF3 cells transfected with TPR-MET genes assessed as cells accumulation at S phase at 0.2 uM by fluorescence-activated cell sorter analysis (reference value: 45.4%); format: functional
BaF3 [13] = assay: Induction of cell cycle arrest in mouse BaF3 cells transfected with TPR-MET genes assessed as cells accumulation at G1 phase at 5 uM by fluorescence-activated cell sorter analysis (reference value: 42.4%); format: functional
BaF3 [14] = assay: Inhibition of Serine phosphorylation of AKT at Ser473 in mouse BaF3 cells transfected with TPR-MET genes at 0.2 to 5 uM by immunoblotting analysis; format: cell-based; conditions: dose 0.2-5 µM
BaF3 [15] = assay: Induction of apoptosis in mouse BaF3 cells transfected with TPR-MET genes assessed as total apoptotic cells at 1 uM measured after 18 hrs by annexin V and propidium iodide staining based flow cytometry assay (reference value: 5%); format: functional
BaF3 [16] = assay: Inhibition of cell growth in mouse BaF3 cells transfected with TPR-MET genes by 3-(4,5-dimethylthiazol-2-yl)-2,5-diphenyltetrazolium bromide assay; format: functional, cell-based
[17] = target: T1, Hepatocyte growth factor receptor (Homo sapiens, UniProt P08581); assay: Inhibition of glutathione S-transferase fused Met (unknown origin) catalytic activity infected in Sf9 cells using poly-Glu-Tyr (4:1) as substrate
[18] = target: T2, Fibroblast growth factor receptor 1 (Homo sapiens, UniProt P11362); assay: Inhibition of glutathione S-transferase fused FGFR1 (unknown origin) catalytic activity infected in Sf9 cells using poly-Glu-Tyr (4:1) as substrate
[19] = target: Proto-oncogene tyrosine-protein kinase Src (Homo sapiens, UniProt P12931); assay: Inhibition of glutathione S-transferase fused c-Src (unknown origin) catalytic activity infected in Sf9 cells using poly-Glu-Tyr (4:1) as substrate
BaF3 [20] = assay: Inhibition of cell growth in mouse BaF3 cells transfected with TPR-MET genes at 0.01 to 10 uM by 3-(4,5-dimethylthiazol-2-yl)-2,5-diphenyltetrazolium bromide assay; format: functional, cell-based; conditions: dose 0.01-10 µM
NCI-H345 = assay: Growth inhibition of human NCI-H345 cells in presence of HGF measured after 72 hrs by 3-(4,5 dimethylthiazol-2-yl)-2,5-diphenyltetrazolium bromide assay; format: functional, cell-based
[21] = target: Hepatocyte growth factor receptor (Mus musculus) (UniProt P16056); assay: Inhibition of Met autophosphorylation at Tyr496 in mouse BaF3 cells at 5 uM by immunoblotting analysis; format: cell-based
BaF3 [22] = assay: Induction of cell cycle arrest in mouse BaF3 cells transfected with TPR-MET genes assessed as cells accumulation at S phase at 1 uM by fluorescence-activated cell sorter analysis (reference value: 45.4%); format: functional
[23] = target: T1, Hepatocyte growth factor receptor; assay: Inhibition of HGF-dependent Met (unknown origin) phosphorylation
BaF3 [24] = assay: Induction of cell cycle arrest in mouse BaF3 cells transfected with TPR-MET genes assessed as cells accumulation at G1 phase at 1 uM by fluorescence-activated cell sorter analysis (reference value: 42.4%); format: functional
[25] = target: Epidermal growth factor receptor (Homo sapiens, UniProt P00533); assay: Inhibition of glutathione S-transferase fused EGFR (unknown origin) catalytic activity infected in Sf9 cells using poly-Glu-Tyr (4:1) as substrate
BaF3 [26] = assay: Inhibition of cell growth in mouse BaF3 cells transfected with TPR-MET genes in presence of interleukin 3 at 1 uM measured after 3 days by 3-(4,5-dimethylthiazol-2-yl)-2,5-diphenyltetrazolium bromide assay; format: functional, cell-based; conditions: time 3.0 day
[27] = target: Vascular endothelial growth factor receptor 2 (Homo sapiens, UniProt P35968); assay: Inhibition of glutathione S-transferase fused Flk1 (unknown origin) catalytic activity infected in Sf9 cells using poly-Glu-Tyr (4:1) as substrate
BaF3 [28] = assay: Induction of cell cycle arrest in mouse BaF3 cells transfected with TPR-MET genes assessed as cells accumulation at S phase at 5 uM by fluorescence-activated cell sorter analysis (reference value: 45.4%); format: functional
BaF3 [29] = assay: Inhibition of cell growth in mouse BaF3 cells transfected with BCR-ABL genes in presence of interleukin 3 at 1 uM measured after 3 days by 3-(4,5-dimethylthiazol-2-yl)-2,5-diphenyltetrazolium bromide assay; format: functional, cell-based; conditions: time 3.0 day
BaF3 [30] = assay: Inhibition of cell growth in mouse BaF3 cells transfected with BCR-ABL genes at 1 uM measured after 18 hrs by 3-(4,5-dimethylthiazol-2-yl)-2,5-diphenyltetrazolium bromide assay; format: functional, cell-based
BaF3 [31] = assay: Induction of cell cycle arrest in mouse BaF3 cells transfected with TPR-MET genes assessed as cells accumulation at G2/M phase at 1 uM by fluorescence-activated cell sorter analysis (reference value: 12.2%); format: functional
BaF3 [32] = assay: Inhibition of cell growth in mouse BaF3 cells transfected with BCR-ABL genes in presence of interleukin 3 at 1 uM measured after 18 hrs by 3-(4,5-dimethylthiazol-2-yl)-2,5-diphenyltetrazolium bromide assay; format: functional, cell-based
BaF3 [33] = assay: Induction of apoptosis in mouse BaF3 cells transfected with TPR-MET genes assessed as viable cells at 1 uM measured after 18 hrs by annexin V and propidium iodide staining based flow cytometry assay (reference value: 93.6%); format: functional; conditions: read-out: Activity
[34] = target: T2, Fibroblast growth factor receptor 1; assay: Inhibition of glutathione S-transferase fused FGFR1 (unknown origin) catalytic activity infected in Sf9 cells using poly-Glu-Tyr (4:1) as substrate at 0.02 uM relative to control
BaF3 [35] = assay: Induction of apoptosis in mouse BaF3 cells transfected with TPR-MET genes assessed as late apoptotic cells at 1 uM measured after 18 hrs by annexin V and propidium iodide staining based flow cytometry assay (reference value: 3.8%); format: functional
BaF3 [36] = assay: Inhibition of cell growth in mouse BaF3 cells transfected with TEL-ABL genes at 1 uM measured after 18 hrs by 3-(4,5-dimethylthiazol-2-yl)-2,5-diphenyltetrazolium bromide assay; format: functional, cell-based
BaF3 [37] = assay: Inhibition of cell growth in mouse BaF3 cells transfected with TPR-MET genes in presence of interleukin 3 at 1 uM by 3-(4,5-dimethylthiazol-2-yl)-2,5-diphenyltetrazolium bromide assay; format: functional, cell-based
BaF3 [38] = assay: Induction of cell cycle arrest in mouse BaF3 cells transfected with TPR-MET genes assessed as cells accumulation at G1 phase at 0.2 uM by fluorescence-activated cell sorter analysis (reference value: 42.4%); format: functional
BaF3 [39] = assay: Induction of cell cycle arrest in mouse BaF3 cells transfected with TPR-MET genes assessed as cells accumulation at G2/M phase at 5 uM by fluorescence-activated cell sorter analysis (reference value: 12.2%); format: functional
Angiopoietin-1 receptor = Angiopoietin-1 receptor (Homo sapiens, UniProt Q02763); assay: Inhibition of glutathione S-transferase fused Tie2 (unknown origin) catalytic activity infected in Sf9 cells using poly-Glu-Tyr (4:1) as substrate
BaF3 [40] = assay: Inhibition of cell growth in mouse BaF3 cells transfected with TEL-JAK2 genes at 1 uM measured after 18 hrs by 3-(4,5-dimethylthiazol-2-yl)-2,5-diphenyltetrazolium bromide assay; format: functional, cell-based
BaF3 [41] = assay: Induction of apoptosis in mouse BaF3 cells transfected with TPR-MET genes assessed as necrotic cells at 1 uM measured after 18 hrs by annexin V and propidium iodide staining based flow cytometry assay (reference value: 0.1%); format: functional
NCI-H69 = assay: Growth inhibition of human NCI-H69 cells in presence of HGF measured after 72 hrs by 3-(4,5 dimethylthiazol-2-yl)-2,5-diphenyltetrazolium bromide assay; format: functional, cell-based
BaF3 [42] = assay: Induction of cell cycle arrest in mouse BaF3 cells transfected with TPR-MET genes assessed as cells accumulation at G2/M phase at 0.2 uM by fluorescence-activated cell sorter analysis (reference value: 12.2%); format: functional
BaF3 [43] = assay: Inhibition of cell growth in mouse BaF3 cells transfected with TEL-PDGFbetaR genes at 1 uM measured after 18 hrs by 3-(4,5-dimethylthiazol-2-yl)-2,5-diphenyltetrazolium bromide assay; format: functional, cell-based
BaF3 [44] = assay: Induction of apoptosis in mouse BaF3 cells transfected with TPR-MET genes assessed as early apoptotic cells at 1 uM measured after 18 hrs by annexin V and propidium iodide staining based flow cytometry assay (reference value: 2.5%); format: functional
BaF3 [45] = assay: Inhibition of migration of mouse BaF3 cells measured after 4 hrs by spontaneous transwell migration assay; format: functional, cell-based; conditions: dose 0.2-5 µM
[46] = target: Hepatocyte growth factor receptor (Mus musculus) (UniProt P16056); assay: Inhibition of Met autophosphorylation at Tyr480 in mouse BaF3 cells at 5 uM by immunoblotting analysis; format: cell-based

Hepatocyte growth factor receptor (Mus musculus), sequence (P16056 whole entry): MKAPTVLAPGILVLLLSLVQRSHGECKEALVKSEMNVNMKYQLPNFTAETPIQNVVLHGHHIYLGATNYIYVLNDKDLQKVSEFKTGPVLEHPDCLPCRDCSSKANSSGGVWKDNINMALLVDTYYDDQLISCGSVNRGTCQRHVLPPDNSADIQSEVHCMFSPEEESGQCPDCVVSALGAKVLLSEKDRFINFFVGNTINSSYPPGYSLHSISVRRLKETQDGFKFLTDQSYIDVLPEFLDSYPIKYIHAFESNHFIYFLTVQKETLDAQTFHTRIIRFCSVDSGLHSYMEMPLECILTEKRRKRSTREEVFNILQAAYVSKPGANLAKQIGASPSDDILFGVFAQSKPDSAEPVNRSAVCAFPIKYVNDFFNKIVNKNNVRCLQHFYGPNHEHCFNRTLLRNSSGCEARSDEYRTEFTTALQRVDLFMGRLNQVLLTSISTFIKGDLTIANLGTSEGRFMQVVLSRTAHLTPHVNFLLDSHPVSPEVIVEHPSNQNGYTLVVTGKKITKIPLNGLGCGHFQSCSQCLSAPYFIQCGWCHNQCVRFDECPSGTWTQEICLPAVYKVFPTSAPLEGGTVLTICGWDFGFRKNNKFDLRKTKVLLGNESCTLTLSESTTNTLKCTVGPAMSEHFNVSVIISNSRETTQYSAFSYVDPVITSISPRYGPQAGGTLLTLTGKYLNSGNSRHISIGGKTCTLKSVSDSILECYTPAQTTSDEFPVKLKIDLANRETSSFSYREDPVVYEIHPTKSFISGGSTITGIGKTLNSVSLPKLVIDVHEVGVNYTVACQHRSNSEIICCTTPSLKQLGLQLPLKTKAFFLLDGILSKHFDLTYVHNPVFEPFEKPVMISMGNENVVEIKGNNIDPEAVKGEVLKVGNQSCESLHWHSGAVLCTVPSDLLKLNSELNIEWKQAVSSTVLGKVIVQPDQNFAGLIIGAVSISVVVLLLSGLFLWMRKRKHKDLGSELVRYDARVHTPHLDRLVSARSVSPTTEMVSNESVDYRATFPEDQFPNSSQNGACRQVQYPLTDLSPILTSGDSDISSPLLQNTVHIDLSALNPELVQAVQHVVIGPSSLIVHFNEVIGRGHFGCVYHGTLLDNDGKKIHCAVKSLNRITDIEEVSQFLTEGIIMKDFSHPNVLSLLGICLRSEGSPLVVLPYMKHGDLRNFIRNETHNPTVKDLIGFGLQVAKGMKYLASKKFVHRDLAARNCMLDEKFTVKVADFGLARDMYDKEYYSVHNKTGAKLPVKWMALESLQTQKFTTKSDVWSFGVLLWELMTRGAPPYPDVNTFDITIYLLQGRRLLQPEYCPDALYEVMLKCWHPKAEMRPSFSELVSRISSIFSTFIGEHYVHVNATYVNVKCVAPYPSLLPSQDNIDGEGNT
T1 sequence (P08581 whole entry, the tested form may be a part): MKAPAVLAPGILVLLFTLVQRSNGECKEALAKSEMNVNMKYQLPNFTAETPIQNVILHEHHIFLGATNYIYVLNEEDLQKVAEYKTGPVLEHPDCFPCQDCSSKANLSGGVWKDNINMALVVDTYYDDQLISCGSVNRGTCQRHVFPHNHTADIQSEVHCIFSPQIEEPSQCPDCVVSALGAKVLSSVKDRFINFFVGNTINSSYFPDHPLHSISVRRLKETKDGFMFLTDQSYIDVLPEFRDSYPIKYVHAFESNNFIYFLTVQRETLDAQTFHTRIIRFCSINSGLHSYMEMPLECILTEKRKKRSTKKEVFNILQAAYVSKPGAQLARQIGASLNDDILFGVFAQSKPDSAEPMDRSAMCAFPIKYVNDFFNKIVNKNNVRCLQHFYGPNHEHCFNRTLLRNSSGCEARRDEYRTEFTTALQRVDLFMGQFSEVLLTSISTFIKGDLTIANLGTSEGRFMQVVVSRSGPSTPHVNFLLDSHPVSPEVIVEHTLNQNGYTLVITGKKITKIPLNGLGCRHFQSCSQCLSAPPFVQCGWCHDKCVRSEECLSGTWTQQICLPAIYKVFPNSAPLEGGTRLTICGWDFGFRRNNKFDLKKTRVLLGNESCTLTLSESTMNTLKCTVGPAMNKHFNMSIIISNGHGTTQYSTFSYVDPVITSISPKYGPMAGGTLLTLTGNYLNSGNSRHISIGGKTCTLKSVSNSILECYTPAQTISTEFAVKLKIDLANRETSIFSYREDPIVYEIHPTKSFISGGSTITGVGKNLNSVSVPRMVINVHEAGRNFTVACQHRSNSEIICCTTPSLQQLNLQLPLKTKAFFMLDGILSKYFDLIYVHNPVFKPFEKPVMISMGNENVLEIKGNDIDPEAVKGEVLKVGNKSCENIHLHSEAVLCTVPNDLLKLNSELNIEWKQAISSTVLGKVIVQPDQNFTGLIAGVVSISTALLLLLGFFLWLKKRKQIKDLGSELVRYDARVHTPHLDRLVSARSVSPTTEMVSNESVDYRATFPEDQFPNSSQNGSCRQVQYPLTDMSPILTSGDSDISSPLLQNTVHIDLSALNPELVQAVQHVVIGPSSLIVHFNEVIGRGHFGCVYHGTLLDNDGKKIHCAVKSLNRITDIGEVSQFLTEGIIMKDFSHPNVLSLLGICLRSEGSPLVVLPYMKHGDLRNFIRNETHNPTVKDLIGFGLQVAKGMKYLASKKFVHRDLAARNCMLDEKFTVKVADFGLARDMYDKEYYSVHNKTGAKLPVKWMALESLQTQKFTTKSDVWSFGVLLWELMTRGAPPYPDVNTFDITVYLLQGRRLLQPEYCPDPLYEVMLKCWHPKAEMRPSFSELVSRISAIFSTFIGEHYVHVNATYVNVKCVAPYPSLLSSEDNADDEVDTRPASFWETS
Angiopoietin-1 receptor, sequence (Q02763 whole entry, the tested form may be a part): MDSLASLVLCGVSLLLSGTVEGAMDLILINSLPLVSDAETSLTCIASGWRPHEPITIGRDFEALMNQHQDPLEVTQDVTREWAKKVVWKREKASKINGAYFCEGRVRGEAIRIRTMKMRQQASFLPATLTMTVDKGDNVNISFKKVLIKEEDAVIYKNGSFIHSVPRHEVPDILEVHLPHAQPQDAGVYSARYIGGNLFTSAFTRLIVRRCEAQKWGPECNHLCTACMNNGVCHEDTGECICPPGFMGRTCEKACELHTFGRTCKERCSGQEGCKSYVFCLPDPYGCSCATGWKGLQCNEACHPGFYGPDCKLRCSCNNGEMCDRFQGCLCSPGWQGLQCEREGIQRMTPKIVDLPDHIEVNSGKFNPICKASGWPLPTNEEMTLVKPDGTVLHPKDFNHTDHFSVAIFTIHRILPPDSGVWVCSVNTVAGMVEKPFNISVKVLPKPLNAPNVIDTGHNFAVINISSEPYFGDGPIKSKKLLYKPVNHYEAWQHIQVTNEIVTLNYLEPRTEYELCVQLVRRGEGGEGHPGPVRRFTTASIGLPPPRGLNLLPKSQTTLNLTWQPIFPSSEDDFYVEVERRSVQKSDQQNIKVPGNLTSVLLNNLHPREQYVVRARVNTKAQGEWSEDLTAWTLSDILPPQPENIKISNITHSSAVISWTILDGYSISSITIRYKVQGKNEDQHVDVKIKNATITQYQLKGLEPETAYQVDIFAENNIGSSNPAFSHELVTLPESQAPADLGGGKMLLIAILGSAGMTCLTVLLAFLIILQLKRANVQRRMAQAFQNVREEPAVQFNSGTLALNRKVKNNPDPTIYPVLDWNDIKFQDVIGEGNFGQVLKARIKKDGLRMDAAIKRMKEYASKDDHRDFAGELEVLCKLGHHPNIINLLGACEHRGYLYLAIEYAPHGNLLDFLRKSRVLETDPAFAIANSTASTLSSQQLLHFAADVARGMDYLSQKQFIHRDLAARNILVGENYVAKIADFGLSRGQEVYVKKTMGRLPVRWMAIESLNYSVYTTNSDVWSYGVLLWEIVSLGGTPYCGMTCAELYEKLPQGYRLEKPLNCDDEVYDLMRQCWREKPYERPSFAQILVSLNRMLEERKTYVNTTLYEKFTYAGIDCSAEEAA
Epidermal growth factor receptor, sequence (P00533 whole entry, the tested form may be a part): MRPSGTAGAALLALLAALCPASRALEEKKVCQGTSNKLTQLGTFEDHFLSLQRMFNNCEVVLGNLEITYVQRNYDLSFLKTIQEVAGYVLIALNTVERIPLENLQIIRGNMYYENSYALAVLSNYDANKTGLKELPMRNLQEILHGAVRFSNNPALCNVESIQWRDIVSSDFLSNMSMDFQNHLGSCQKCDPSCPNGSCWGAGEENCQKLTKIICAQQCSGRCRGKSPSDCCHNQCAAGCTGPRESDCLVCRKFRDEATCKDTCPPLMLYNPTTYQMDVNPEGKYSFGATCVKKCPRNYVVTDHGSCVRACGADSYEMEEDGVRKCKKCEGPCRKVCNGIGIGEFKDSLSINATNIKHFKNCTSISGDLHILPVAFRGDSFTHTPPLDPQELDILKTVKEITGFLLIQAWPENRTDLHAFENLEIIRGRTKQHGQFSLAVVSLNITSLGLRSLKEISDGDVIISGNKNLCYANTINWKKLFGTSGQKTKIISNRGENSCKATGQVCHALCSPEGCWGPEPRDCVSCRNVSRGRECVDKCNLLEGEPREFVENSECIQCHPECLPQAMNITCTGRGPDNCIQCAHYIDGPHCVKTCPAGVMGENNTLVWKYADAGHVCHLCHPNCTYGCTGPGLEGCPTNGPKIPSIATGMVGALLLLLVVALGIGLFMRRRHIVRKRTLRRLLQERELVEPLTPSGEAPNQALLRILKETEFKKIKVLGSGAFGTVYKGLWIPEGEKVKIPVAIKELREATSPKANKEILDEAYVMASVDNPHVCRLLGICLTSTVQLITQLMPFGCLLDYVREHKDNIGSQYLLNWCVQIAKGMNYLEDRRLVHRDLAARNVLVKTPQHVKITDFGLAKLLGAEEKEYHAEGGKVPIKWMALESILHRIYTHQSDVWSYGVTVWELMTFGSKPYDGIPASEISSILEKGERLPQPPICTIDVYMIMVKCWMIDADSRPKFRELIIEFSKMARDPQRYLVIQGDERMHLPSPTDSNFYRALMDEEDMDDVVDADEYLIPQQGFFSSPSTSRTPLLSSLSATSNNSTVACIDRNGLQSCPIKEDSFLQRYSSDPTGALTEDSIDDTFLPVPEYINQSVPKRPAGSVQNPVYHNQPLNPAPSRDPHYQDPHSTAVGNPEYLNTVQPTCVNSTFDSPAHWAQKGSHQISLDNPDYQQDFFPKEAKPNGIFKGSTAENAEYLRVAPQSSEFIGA

IC50 [2]: > 10 µM
IC50 [3]: > 20 µM
inhibition [10]: Active
IC50 (BaF3 [16]): < 3 µM
IC50 [17]: 0.02 µM
IC50 [18]: 9.7 µM
IC50 [19]: > 10 µM
inhibition [21]: Active
IC50 [23]: 1 µM
IC50 [25]: > 100 µM
IC50 [27]: 1.3 µM
inhibition [34]: 2%
IC50 (Angiopoietin-1 receptor): > 100 µM
inhibition [46]: Active
SMILES: Cc1[nH]c(/C=C2/C(=O)Nc3ccc(S(=O)(=O)N(C)c4cccc(Cl)c4)cc32)c(C)c1C(=O)N1CCN(C)CC1
inhibition (BaF3 [1]): Active
inhibition at 5 µM (BaF3 [4]): 80%
inhibition at 1 µM (BaF3 [5]): 100%
inhibition (BaF3 [6]): Dose-Dependent Effect
inhibition (BaF3 [7]): Active
inhibition (BaF3 [8]): Active
inhibition at 1 µM (BaF3 [9]): 44.8%
inhibition (BaF3 [11]): inactive
Activity (BaF3 [12]): 40%
Activity (BaF3 [13]): 13.4%
inhibition (BaF3 [14]): Active
Activity (BaF3 [15]): 24%
inhibition (BaF3 [20]): Dose-Dependent Effect
inhibition (NCI-H345): Dose-Dependent Effect
Activity (BaF3 [22]): 29.8%
Activity (BaF3 [24]): 40%
inhibition (BaF3 [26]): inactive
Activity (BaF3 [28]): 21.1%
inhibition (BaF3 [29]): inactive
inhibition (BaF3 [30]): inactive
Activity (BaF3 [31]): 6%
inhibition (BaF3 [32]): inactive
viability at 1 µM (BaF3 [33]): 70.3%
Activity (BaF3 [35]): 17.2%
inhibition (BaF3 [36]): inactive
inhibition (BaF3 [37]): Active
Activity (BaF3 [38]): 46.6%
Activity (BaF3 [39]): 8.3%
inhibition (BaF3 [40]): inactive
Activity (BaF3 [41]): 1.1%
inhibition (NCI-H69): Dose-Dependent Effect
Activity (BaF3 [42]): 13.4%
inhibition (BaF3 [43]): inactive
Activity (BaF3 [44]): 11.3%
inhibition (BaF3 [45]): Dose-Dependent Effect
